Assay results as given in patent US20130281304A1, “Comprehensive Methylome Map of Myeloid and Lymphoid Commitment from Hematopoietic Proenitors” (priority 2010, published 2013).

System: hematopoietic progenitors (MPP^FL+, CLP, DN1, DN2, DN3)
Experiment: OP9:OP9DL1 stromal co-cultures, myeloid versus lymphoid progeny by flow cytometry
Assay type: cell-based, mouse
Details: 50 nM; for myeloid versus lymphoid progeny: DN3 progenitors; for myeloid versus lymphoid progeny / percentage of myeloid progeny versus lymphoid progeny: 6 days after plating on OP9:OP9DL1 stroma; for percentage of myeloid progeny versus lymphoid progeny: MPP^FL+, CLP, DN1 and DN2 progenitors
Description: FIG. 6 is a series of graphical representations of FACS plots and quantitation of myeloid versus lymphoid progeny. FIG. 6a are representative FACS plots of progeny from hematopoietic progenitors 6 days after plating on OP9:OP9DL1 stroma in the presence or absence of 5-aza-2′deoxycytidine. […] FIG. 6b is a histogram depicting quantitation of myeloid versus lymphoid progeny. The percentage of myeloid versus lymphoid progeny, as defined above, were quantified for each well from the experiment in a. Each bar represents the average of triplicate wells, and the error bars are the standard deviations between wells.
OP9:OP9DL1 stromal co-cultures. 3000 OP9 and 3000 OP9DL1 cells were plated in each well of 96 well plates in MEMa+10% FBS. The next day, 50 double-sorted progenitors were plated per well in the presence of 5 ng/ml IL-7 and F1t3L, and 10 ng/ml IL-3, IL-6, M-CSF, GM-CSF, and G-CSF (PeproTech). 50 nM 5-aza-2′-deoxycytide (Sigma) or vehicle (50% acetic acid) was added to the wells as indicated. At day 3, half of the media plus cytokines and drugs was replaced. At day 6, progeny from each well were stained and analyzed by flow cytometry to identify lymphoid versus myeloid progeny.
To test the hypothesis that reduced methylation preferentially promotes myeloid as opposed to lymphoid differentiation, an in vitro assay system that promotes both myeloid and lymphoid development was used (as in Engel et al., Epigenetics. 2009;4:98-99 and Bell et al., Nature. 2008;452:764-767). […] It evident that inhibiting DNA methylation promotes myeloid versus lymphoid specification, providing a mechanism for the myeloid skewing observed in Dnmt1 hypomorphs.

[1] = listed as 5-aza-2′deoxycytidine

Nc1ncn([C@H]2C[C@H](O)[C@@H](CO)O2)c(=O)n1 [5-aza-2′-deoxycytidine]
myeloid skewing, compared between progenitor populations (DN1 cells, 6 days): most pronounced in DN1 cells
myeloid versus lymphoid progeny: remained lymphoid committed
myeloid versus lymphoid progeny [1]: continued to generate an exclusively lymphoid readout
cell expansion (DN3 wells, 6 days): inhibited cell expansion
percentage of myeloid progeny versus lymphoid progeny: increased at the expense of lymphoid progeny
percentage of myeloid progeny versus lymphoid progeny [1]: trended towards generating more myeloid progeny
